Results: ChEMBL document CHEMBL3286154, “Oxabicyclooctane-linked novel bacterial topoisomerase inhibitors as broad spectrum antibacterial agents” (ACS Med Chem Lett, 2014)
pIC50: −log10 of the molar value. Active and inactive are the calls of the source. The calls are words filed in the database; no cut-off is given here.

Columns and labels:
Liver microsome [1] = assay: Metabolic stability in dog liver microsomes after 30 to 60 mins; type: ADME, Canis lupus familiaris
Staphylococcus aureus [2] = assay: Antibacterial activity against quinolone-resistant Staphylococcus aureus; type: functional
Liver microsome [3] = assay: Metabolic stability in human liver microsomes after 30 to 60 mins; type: ADME
Liver = assay: Metabolic stability in mouse liver microsomes after 30 to 60 mins; type: ADME
[4] = Oral bioavailability in C57BL/6 mouse at 2 mg/kg; type: ADME, organism-based; settings: in vivo
Staphylococcus aureus [5] = assay: Antibacterial activity against Staphylococcus aureus infected in po dosed ICR mouse assessed as increase in mouse survival after 7 days; type: functional; settings: 168 h
[6] = Volume of distribution at steady state in C57BL/6 mouse at 1 mg/kg, iv and 2 mg/kg, po; type: ADME, organism-based; settings: in vivo, read-out: Vdss
Enterococcus faecium = assay: Antibacterial activity against vancomycin-resistant Enterococcus faecium; type: functional
Staphylococcus aureus [7] = assay: Antibacterial activity against methicillin-resistant Staphylococcus aureus; type: functional
[8] = Unbound fraction in mouse plasma; type: ADME, cell-free
Staphylococcus aureus [9] = assay: Antibacterial activity against Staphylococcus aureus infected in iv dosed ICR mouse assessed as increase in mouse survival after 7 days; type: functional; settings: 168 h
[10] = Unbound fraction in human plasma; type: ADME, cell-free
[11] = Unbound fraction in dog plasma; type: ADME, cell-free, Canis lupus familiaris
Streptococcus pneumoniae = assay: Antibacterial activity against Streptococcus pneumoniae; type: functional
[12] = Plasma clearance in C57BL/6 mouse at 1 mg/kg, iv and 2 mg/kg, po; type: ADME, organism-based
Staphylococcus aureus [13] = assay: Antibacterial activity against Staphylococcus aureus in presence of 50% human serum; type: functional, organism-based
Acinetobacter baumannii = assay: Antibacterial activity against Acinetobacter baumannii; type: functional
Staphylococcus aureus [14] = assay: Antibacterial activity against Staphylococcus aureus in presence of 500 ug/ml sheared DNA; type: functional, organism-based
[15] = Half life in C57BL/6 mouse at 1 mg/kg, iv and 2 mg/kg, po; type: ADME, organism-based; settings: in vivo
Enterococcus faecalis = assay: Antibacterial activity against Enterococcus faecalis; type: functional
Escherichia coli [16] = assay: Antibacterial activity against Escherichia coli; type: functional
Staphylococcus aureus [17] = assay: Antibacterial activity against methicillin-sensitive Staphylococcus aureus; type: functional
Pseudomonas aeruginosa = assay: Antibacterial activity against Pseudomonas aeruginosa; type: functional
Mus musculus = assay: Dose normalized AUC in C57BL/6 mouse at 1 mg/kg, iv and 2 mg/kg, po; type: ADME, organism-based; settings: in vivo
Staphylococcus aureus [18] = assay: Antibacterial activity against quinolone-sensitive Staphylococcus aureus; type: functional
Staphylococcus aureus [19] = assay: Antibacterial activity against Staphylococcus aureus ATCC 29213 assessed as reduction of colony forming units using > 10^5 CFU/ml inoculum at 0.06 to 0.12 ug/ml by time kill experiment; type: functional
Escherichia coli [20] = assay: Antibacterial activity against Escherichia coli infected in iv dosed ICR mouse assessed as increase in mouse survival after 7 days; type: functional; settings: 168 h
Canis familiaris = assay: Dose normalized AUC in beagle dog at 1 mg/kg, iv and 2 mg/kg, po; type: ADME, organism-based, Canis lupus familiaris; settings: in vivo
DNA gyrase = DNA gyrase (Staphylococcus aureus, UniProt P0A0K8+P20831); assay: Inhibition of Staphylococcus aureus DNA gyrase; type: protein-complex assay
[21] = Inhibition of Staphylococcus aureus DNA topoisomerase 4
[22] = Plasma clearance in beagle dog at 1 mg/kg, iv and 2 mg/kg, po; type: ADME, organism-based, Canis lupus familiaris
Moraxella catarrhalis = assay: Antibacterial activity against Moraxella catarrhalis; type: functional
[23] = Inhibition of Escherichia coli topoisomerase 4
[24] = Volume of distribution at steady state in beagle dog at 1 mg/kg, iv and 2 mg/kg, po; type: ADME, organism-based, Canis lupus familiaris; settings: in vivo, read-out: Vdss
[25] = Solubility of the compound in PBS at pH 2; type: physicochemical
[26] = Half life in beagle dog at 1 mg/kg, iv and 2 mg/kg, po; type: ADME, organism-based, Canis lupus familiaris; settings: in vivo
[27] = Oral bioavailability in beagle dog at 2 mg/kg; type: ADME, organism-based, Canis lupus familiaris; settings: in vivo
Escherichia coli [28] = assay: Antibacterial activity against Escherichia coli infected in po dosed ICR mouse assessed as increase in mouse survival after 7 days; type: functional; settings: 168 h
[29] = Inhibition of Escherichia coli gyrase
Haemophilus influenzae = assay: Antibacterial activity against Haemophilus influenzae; type: functional
[30] = Solubility of the compound in PBS at pH 7; type: physicochemical
Staphylococcus aureus [31] = assay: Inhibition of DNA synthesis in Staphylococcus aureus using radioligand at 0.001 to 1 ug/ml by scintillation counting

DNA gyrase, sequence (P0A0K8 whole entry): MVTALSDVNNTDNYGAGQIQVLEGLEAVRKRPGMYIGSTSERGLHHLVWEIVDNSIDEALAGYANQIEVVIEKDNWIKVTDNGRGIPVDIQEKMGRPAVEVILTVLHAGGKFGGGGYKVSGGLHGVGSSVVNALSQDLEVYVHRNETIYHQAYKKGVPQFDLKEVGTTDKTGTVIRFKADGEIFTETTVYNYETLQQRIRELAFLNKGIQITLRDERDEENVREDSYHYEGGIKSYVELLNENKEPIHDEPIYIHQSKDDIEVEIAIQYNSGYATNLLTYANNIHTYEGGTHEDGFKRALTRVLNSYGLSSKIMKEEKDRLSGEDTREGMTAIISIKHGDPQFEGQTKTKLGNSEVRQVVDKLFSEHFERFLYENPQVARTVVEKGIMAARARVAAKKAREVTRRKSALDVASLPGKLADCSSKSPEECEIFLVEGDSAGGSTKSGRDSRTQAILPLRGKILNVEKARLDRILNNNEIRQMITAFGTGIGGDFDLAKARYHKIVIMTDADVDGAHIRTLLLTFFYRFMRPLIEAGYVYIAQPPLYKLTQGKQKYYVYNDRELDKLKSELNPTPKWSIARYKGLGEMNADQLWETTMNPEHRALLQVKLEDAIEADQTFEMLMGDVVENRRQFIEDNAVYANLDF
DNA gyrase, sequence (P20831 whole entry): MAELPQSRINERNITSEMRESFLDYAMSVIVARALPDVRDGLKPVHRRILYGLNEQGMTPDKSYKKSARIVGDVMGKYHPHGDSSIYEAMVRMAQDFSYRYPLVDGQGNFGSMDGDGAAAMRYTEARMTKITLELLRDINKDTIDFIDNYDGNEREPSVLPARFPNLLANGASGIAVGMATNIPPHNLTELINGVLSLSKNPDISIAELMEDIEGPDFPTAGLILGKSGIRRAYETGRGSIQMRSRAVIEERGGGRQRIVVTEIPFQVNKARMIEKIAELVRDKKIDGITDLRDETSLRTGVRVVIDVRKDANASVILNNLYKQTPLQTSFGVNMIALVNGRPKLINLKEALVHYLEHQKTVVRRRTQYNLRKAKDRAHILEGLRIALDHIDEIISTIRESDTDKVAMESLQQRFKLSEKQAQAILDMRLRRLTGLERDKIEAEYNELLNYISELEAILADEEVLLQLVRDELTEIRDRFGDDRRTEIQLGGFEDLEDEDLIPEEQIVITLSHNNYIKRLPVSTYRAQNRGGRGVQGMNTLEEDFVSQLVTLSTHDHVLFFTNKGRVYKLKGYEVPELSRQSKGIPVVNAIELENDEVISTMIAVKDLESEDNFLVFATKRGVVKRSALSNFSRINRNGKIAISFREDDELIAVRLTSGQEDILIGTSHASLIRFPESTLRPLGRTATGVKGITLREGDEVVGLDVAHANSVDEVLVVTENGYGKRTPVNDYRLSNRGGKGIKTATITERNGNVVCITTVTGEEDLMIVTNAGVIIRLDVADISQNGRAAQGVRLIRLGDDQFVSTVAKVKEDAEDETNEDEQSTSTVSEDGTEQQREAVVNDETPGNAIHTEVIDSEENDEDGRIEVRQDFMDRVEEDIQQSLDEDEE

With `COc1ccc2ncc(F)c(C[C@@H](O)C34CCC(NCc5ccc6c(n5)NC(=O)CO6)(CC3)CO4)c2n1.Cl` the Stability (Liver microsome [1]) was “Stable”, the MIC (Staphylococcus aureus [2]) was 0.5 µg/mL and the Stability (Liver microsome [3]) was “Stable”. The Stability (Liver) was “Stable”, the bioavailability [4] was 25.3% and the ED50 (Staphylococcus aureus [5]) was 4.5 mg/kg. The Vd [6] was 4.94 L/kg, the MIC (Enterococcus faecium) was 2 µg/mL and the MIC (Staphylococcus aureus [7]) was 0.5 µg/mL. The fraction unbound [8] was greater than 0.25, the ED50 (Staphylococcus aureus [9]) was 3.5 mg/kg and the fraction unbound [10] was greater than 0.25. It also gave a fraction unbound [11] greater than 0.25, an MIC (Streptococcus pneumoniae) of 0.25 µg/mL and a clearance [12] of 48.7 mL/min/kg. For the same compound, the Activity (Staphylococcus aureus [13]) was “Active”, the MIC (Acinetobacter baumannii) was 1 µg/mL and the Activity (Staphylococcus aureus [14]) was “Active”. For the same compound, the half-life [15] was 129 min, the MIC (Enterococcus faecalis) was 1 µg/mL and the MIC (Escherichia coli [16]) was 4 µg/mL. For the same compound, the MIC (Staphylococcus aureus [17]) was 0.06 µg/mL, the MIC (Pseudomonas aeruginosa) was 8 µg/mL and the AUC/dose (Mus musculus) was 0.68 µM·h/mpk. For the same compound, the MIC (Staphylococcus aureus [18]) was 0.06 µg/mL.

With `COc1ccc2ncc(F)c(C[C@H](O)C34CCC(NCc5ccc6c(n5)NC(=O)CO6)(CC3)CO4)c2n1.Cl` the Stability (Liver microsome [1]) was “Stable”, the MIC (Staphylococcus aureus [2]) was 0.25 µg/mL and the log10cfu (Staphylococcus aureus [19]) was greater than 3. The Stability (Liver microsome [3]) was “Stable”, the ED50 (Escherichia coli [20]) was 23 mg/kg and the Stability (Liver) was “Stable”. It also gave a bioavailability [4] of 30.1%, an AUC/dose (Canis familiaris) of 3.57 µM·h and an ED50 (Staphylococcus aureus [5]) of 2.2 mg/kg. For the same compound, the Vd [6] was 1.61 L/kg, the MIC (Enterococcus faecium) was 0.5 µg/mL and the MIC (Staphylococcus aureus [7]) was 0.06 µg/mL. The pIC50 (DNA gyrase) was 5.99, the fraction unbound [8] was greater than 0.25 and the ED50 (Staphylococcus aureus [9]) was 2.5 mg/kg. It also gave a pIC50 [21] of 4.98, a fraction unbound [10] greater than 0.25 and a clearance [22] of 9.16 mL/min/kg. It also gave an MIC (Moraxella catarrhalis) of 0.015 µg/mL, a fraction unbound [11] greater than 0.25 and an MIC (Streptococcus pneumoniae) of 0.05 µg/mL. For the same compound, the clearance [12] was 43.3 mL/min/kg, the Activity (Staphylococcus aureus [13]) was “Active” and the pIC50 [23] was 6.30. For the same compound, the MIC (Acinetobacter baumannii) was 0.5 µg/mL, the Activity (Staphylococcus aureus [14]) was “Active” and the half-life [15] was 102 min. It also gave an MIC (Enterococcus faecalis) of 0.5 µg/mL, an MIC (Escherichia coli [16]) of 2 µg/mL and a Vd [24] of 2.6 L/kg. The MIC (Staphylococcus aureus [17]) was 0.02 µg/mL, the solubility [25] was 200 µM and the half-life [26] was 269 min. The bioavailability [27] was 40.4%, the ED50 (Escherichia coli [28]) was 85 mg/kg and the MIC (Pseudomonas aeruginosa) was 8 µg/mL. For the same compound, the pIC50 [29] was 6.11, the AUC/dose (Mus musculus) was 0.76 µM·h/mpk and the MIC (Haemophilus influenzae) was 0.5 µg/mL. It also gave a solubility [30] of 154 µM and an MIC (Staphylococcus aureus [18]) of 0.06 µg/mL.

For `COc1ccc2ncc(F)c(CCC34CCC(NCc5ccc6c(n5)NC(=O)CO6)(CC3)CO4)c2n1.Cl`, the Stability (Liver microsome [1]) was “Stable”, the MIC (Staphylococcus aureus [2]) was 0.064 µg/mL and the Stability (Liver microsome [3]) was “Stable”. The Stability (Liver) was “Stable”, the inhibition (Staphylococcus aureus [31]) was “Active” and the bioavailability [4] was 71.6%. For the same compound, the AUC/dose (Canis familiaris) was 0.43 µM·h, the ED50 (Staphylococcus aureus [5]) was 17 mg/kg and the Vd [6] was 2.22 L/kg. For the same compound, the MIC (Enterococcus faecium) was 0.5 µg/mL, the MIC (Staphylococcus aureus [7]) was 0.008 µg/mL and the pIC50 (DNA gyrase) was 6.66. The fraction unbound [8] was less than 0.02, the ED50 (Staphylococcus aureus [9]) was 5.5 mg/kg and the pIC50 [21] was 5.36. For the same compound, the fraction unbound [10] was less than 0.02, the clearance [22] was 39.8 mL/min/kg and the fraction unbound [11] was less than 0.02. For the same compound, the MIC (Streptococcus pneumoniae) was 0.064 µg/mL, the clearance [12] was 34.6 mL/min/kg and the Activity (Staphylococcus aureus [13]) was “inactive”. For the same compound, the pIC50 [23] was 6.70, the MIC (Acinetobacter baumannii) was 0.5 µg/mL and the Activity (Staphylococcus aureus [14]) was “inactive”. For the same compound, the half-life [15] was 134 min, the MIC (Enterococcus faecalis) was 1 µg/mL and the MIC (Escherichia coli [16]) was 1 µg/mL. For the same compound, the Vd [24] was 5.36 L/kg, the MIC (Staphylococcus aureus [17]) was 0.016 µg/mL and the solubility [25] was 20.3 µM. For the same compound, the half-life [26] was 111 min, the bioavailability [27] was greater than 100% and the MIC (Pseudomonas aeruginosa) was 4 µg/mL. It also gave a pIC50 [29] of 6.74, an AUC/dose (Mus musculus) of 0.98 µM·h/mpk and an MIC (Haemophilus influenzae) of 1 µg/mL. For the same compound, the solubility [30] was less than 0.89 µM and the MIC (Staphylococcus aureus [18]) was 0.016 µg/mL.
